Values of other authors in patent US20230144436A1, “MUSCLE TARGETING COMPLEXES AND USES THEREOF FOR TREATING MYOTONIC DYSTROPHY” (Dyne Therapeutics, Inc., priority 2020, published 2023).

How the values were obtained:
[1] = test system: mouse muscle tissue; conditions: cited from earlier work
[2] = test system: C2C12 murine myotubes; conditions: in vitro, phage display; cited from earlier work

Substance: ASSLNIA [muscle-specific heptapeptide identified by phage display]
- specificity for binding to heart and skeletal muscle tissue ([1]; after intravenous injection in mice, reduced binding to liver, kidney, and brain): improved specificity for binding to heart and skeletal muscle tissue
- binding to mouse muscle tissue ([1]; in vivo): bound to mouse muscle tissue in vivo
- binding to C2C12 cells [2]: bound to C2C12 murine myotubes in vitro
